Laboratory results published in patent US12642862B2, “Anti-CD79B antibody-drug conjugate, and preparation method therefor and pharmaceutical use thereof” (TUOJIE BIOTECH (SHANGHAI) CO., LTD., priority 2020, dated 2026).
Positions count from the first letter of the chain named. Read-outs that look alike come from different tables or passages of the source. Each block holds one molecule with its values, some of them ahead of it.

What was measured:
SKBR3 = assay: Test Example 1 in vitro cytotoxic activity (CTG), SKBR3; format: cell-based; settings: for IC50: Homo sapiens, SK-BR-3, 120 h
Protocol: (§1) In this experiment, the ATP content was determined using CTG to reflect the survival condition of the tumor cells. […] The killing effect of the toxin molecule was then assayed according to this condition.
(§2) 1) Cell plating: each of A549, SKBR3 and MDA-MB-468 was digested with pancreatin, resuspended in a culture medium and counted, and 6.33×10^5 cells were added to the medium to make a final volume of 38 mL. 180 μL of the culture medium was plated in a 96-well plate (3903) to obtain a cell density of 3 K/well, and the cells were cultured at 37° C. for 24 h.
(§3) 2 mM solution (10-fold dilution of stock solution in DMSO) was prepared in column 1 of the plate 1, then 10-fold gradient dilution in DMSO was performed in columns 2 to 10. The wells in column 11 were filled with DMSO. 95 μL of corresponding culture medium was added to each well of columns 2 to 11 of the plate 2, and 5 μL of solution was pipetted from columns 2 to 11 of the plate 1 and added to the plate 2. After the solution was mixed well, 20 μL of solution was pipetted and added to the plated cells. Each sample was run in duplicate. The cells were continuously cultured for 5 days.
(§4) 3) CTG assay: the plate was taken out and allowed to equilibrate to room temperature. 90 μL of CTG was added to each well and reacted at room temperature for 10 min away from the light. The luminescence value was read using a microplate reader and IC50 was calculated.

MDA-MB-468 = assay: Test Example 1 in vitro cytotoxic activity (CTG), MDA-MB-468; format: cell-based; settings: for IC50: Homo sapiens
Protocol: as §1, §2, §3, §4

A549 = assay: Test Example 1 in vitro cytotoxic activity (CTG), A549; format: cell-based; settings: for IC50: Homo sapiens
Protocol: as §1, §2, §3, §4

[1] = molecular target: T1, CD79B protein on the surface of DoHH2 cells (Homo sapiens, UniProt P40259); assay: FACS of anti-human CD79B hybridoma positive clones; format: binding
T1 construct: endogenous in cells; host or cells: DoHH2 (DOHH-2) cells
T1 sequence (P40259 29-229): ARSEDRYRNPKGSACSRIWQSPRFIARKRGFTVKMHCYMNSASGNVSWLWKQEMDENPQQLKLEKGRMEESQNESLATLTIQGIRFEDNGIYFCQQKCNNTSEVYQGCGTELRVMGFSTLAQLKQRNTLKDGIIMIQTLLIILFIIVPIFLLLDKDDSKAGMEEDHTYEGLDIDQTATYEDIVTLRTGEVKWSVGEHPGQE
T1 sequence (P11912 33-226 partner): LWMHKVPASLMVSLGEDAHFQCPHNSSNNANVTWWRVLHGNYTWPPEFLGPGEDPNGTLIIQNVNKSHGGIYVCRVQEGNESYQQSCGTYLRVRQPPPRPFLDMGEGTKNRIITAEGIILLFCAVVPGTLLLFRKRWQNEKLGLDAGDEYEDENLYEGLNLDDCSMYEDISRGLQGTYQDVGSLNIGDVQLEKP
Protocol: 4) FACS screening The suspension of DoHH2 cells was centrifuged, resuspended in PBS containing 0.1% BSA, and counted. The test serum was added, and the cells were incubated at room temperature for 60 min and washed. Then Anti-Mouse IgG (Fc specific)-FITC secondary antibody was added, and the cells were incubated at room temperature for 30 min away from the light, washed three times, gently resuspended in PBS containing 0.1% BSA, and loaded on the machine for assay.
(§5) 5) Identification of hybridoma positive clones A plurality of specific antibodies against human CD79B antigen were obtained; and 17 strains of hybridomas having strongest binding force to ELISA and FACS in assays were taken for production and purification of antibodies. Specific antibodies against monkey CD79B antigen were also obtained; and 4 strains of hybridomas having strongest binding force to ELISA and FACS in assays were taken for production and purification of antibodies. Assay results of anti-monkey CD79B hybridoma positive clone cells by FACS are shown in Table 4. mIgG was used as negative control in the both assays.

[2] = molecular target: T1, CD79B protein on the surface of DoHH2 cells; assay: FACS of purified anti-human CD79B mouse monoclonal antibodies on DoHH2 cells; format: binding; settings: for FACS binding force: antibodies diluted 1:10 from 100 nM, FIGS. 9A, 9B; for FACS binding force compared with SN8: positive control antibody SN8
Protocol: 3) Assay on anti-human CD79B mouse monoclonal antibodies by FACS The cell suspension of DoHH2 cells was centrifuged, resuspended in PBS containing 0.1% BSA, and counted. 100 μL of antibody diluted in a 1:10 ratio from 100 nM was added, and the cells were incubated at room temperature for 1 h and washed three times. Then Anti-Mouse IgG (Fc specific)-FITC secondary antibody was added, and the cells were incubated at room temperature for 30 min away from the light, washed three times, gently resuspended in PBS containing 0.1% BSA, and loaded on the machine for assay. […] The specific data are shown in FIGS. 9A and 9B, in which hIgG1 is a negative control antibody and SN8 is a positive control antibody. SN8 is an antibody (reference sequence source: US20170362318A) used in the antibody-drug conjugate polatuzumab vedotin developed by Roche pharmaceutical. Polatuzumab vedotin has been approved by the FDA for marketing.

human CD79B [3] = molecular target: T2, human CD79B (Homo sapiens, UniProt P40259); assay: ELISA of anti-human CD79B hybridoma positive clones; format: binding; design: the extracellular region (ECD) of human CD79B comprises 159 amino acids (Met1-Asp159); made in house; host or cells: 293F cells; settings: hybridoma cell supernatant, read at 450 nm
T2 sequence (P40259 29-159 limits assumed): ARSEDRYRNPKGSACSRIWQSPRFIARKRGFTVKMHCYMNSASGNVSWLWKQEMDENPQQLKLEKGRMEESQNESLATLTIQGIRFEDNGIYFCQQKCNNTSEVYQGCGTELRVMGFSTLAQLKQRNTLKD
Protocol: (§6) 3) ELISA screening A 96-well plate was coated with 1 μg/mL antigen at 50 μL/well and incubated in a refrigerator at 4° C. overnight. The next day, the coated antigen plate was washed once (washing solution: 1×PBST). After washing, the plate was blocked with 1% BSA blocking solution prepared in 1×PBST at 37° C. for 1 h. After washing the plate 3 times with 1×PBST, 50 μL of the test cell supernatant was added, and the plate was incubated in an incubator at 37° C. for 1 h. After washing the plate 3 times with 1×PBST, 100 μL of goat anti-mouse secondary antibody diluted in a 1:5000 ratio was added, and the plate was incubated in an incubator at 37° C. for 0.5 h. After washing the plate, TMB color development solutions A and B were mixed in a 1:1 ratio for color development. 15 min later, the color development reaction was stopped with 1 N hydrochloric acid. […] value was read at 450 nm on a Spectra Max M5 microplate reader.
as §5

human CD79B [4] = molecular target: T2, human CD79B; assay: ELISA of purified anti-human CD79B mouse monoclonal antibodies; format: binding; design: the extracellular region (ECD) of human CD79B comprises 159 amino acids (Met1-Asp159); made in house; host or cells: 293F cells; settings: purified antibodies diluted 1:10 from 100 nM; FIG. 8
Protocol: as §6, with “2) Assay on anti-human CD79B mouse monoclonal antibodies by” for “3)”, “ELISA” for “ELISA screening”, “antibody diluted in a 1:10 ratio from 100 nM” for “the test cell supernatant”

Molecule: C=C1C[C@@H]2CC[C@@]34C[C@H]5O[C@H]6[C@@H](O3)[C@H]3O[C@H](CC[C@@H]3O[C@H]6[C@H]5O4)CC(=O)C[C@@H]3[C@@H](OC)[C@@H](C[C@@H](CN)OC)O[C@H]3C[C@H]3O[C@@H](CC[C@@H]1O2)C[C@@H](C)C3=C [D-1]
IC50 (SKBR3): 0.205 nM
Maximum inhibition (%) (SKBR3; SKBR3, 5 days, CTG): 96.87%
killing effect compared with eribulin (SKBR3; three tumor cell lines SKBR3, MDA-MB-468 and A549): good killing effect in three tumor cell lines and is significantly superior to the positive drug eribulin
IC50 (MDA-MB-468; MDA-MB-468, 120 h): 0.183 nM
Maximum inhibition (%) (MDA-MB-468; MDA-MB-468, 5 days, CTG): 88.01%
Maximum inhibition (%) (A549; A549, 5 days, CTG): 81.34%
IC50 (A549; A549, 120 h): 0.515 nM

Molecule: C=C1C[C@@H]2CC[C@@]34C[C@H]5O[C@H]6[C@@H](O3)[C@H]3O[C@H](CC[C@@H]3O[C@H]6[C@H]5O4)CC(=O)C[C@@H]3[C@@H](OC)[C@@H](C[C@H](O)CN)O[C@H]3C[C@H]3O[C@@H](CC[C@@H]1O2)C[C@@H](C)C3=C [Eribulin, reference compound]
IC50 (SKBR3; SKBR3, 5 days, CTG, read-out: IC50): 0.715 nM
IC50 (MDA-MB-468; 120 h, MDA-MB-468, 5 days, CTG, read-out: IC50): 0.482 nM
IC50 (A549; 120 h, A549, 5 days, CTG, read-out: IC50): 0.661 nM

Mean fluorescence value [1]: 9990
FACS binding force [2]: strongest FACS binding force
FACS binding force compared with SN8 [2]: superior binding force to SN8
Results (OD450) (human CD79B [3]): 3.46
ELISA binding force (human CD79B [4]): strongest ELISA binding force
B1: mAb016: anti-human CD79B mouse monoclonal antibody, hybridoma clone 83C2D4 (antibody, V domains shown)
VH: QVQLQQSGAELARPGASVKLSCKASGYIFTNYGIIWVKQRTGQGLEWIGDIFPGSGNTYYNENFKGKATLTADKSSSTAYMELRSLTSEDSAVYFCSRGELGDFDYWGQGTTLTVSS
VL: VVLMTQTPLSLPVSLGDQASISCRSSQNIVHSDGTTYLEWYLQKPGQSPKLLIYKVSNRFSGVPDRFSGSGSGTDFTLKISRVEAEDLGIYYCFQGSHVPWTFGGGTKLEIK

Mean fluorescence value [1]: 8132
FACS binding force [2]: strongest FACS binding force
FACS binding force compared with SN8 [2]: superior binding force to SN8
Results (OD450) (human CD79B [3]): 3.80
ELISA binding force (human CD79B [4]): strongest ELISA binding force
B2: mAb017: anti-human CD79B mouse monoclonal antibody, clone 86F11F6; VH SEQ ID NO: 5, VL SEQ ID NO: 6 (antibody, listed as Mus musculus, V domains shown)
VH: QVQLQQSGAELARPGASVKLSCKASGYTFTTYGINWVKQRTGQGLEWIGEIYPRSGNIYYNEKFKGKATLTADKSSSTAYMELRSLTSEDSAVYFCARGSDYDGDFAYWGQGTLVTVSA
VL: B1 VL with V1D, N28S, S32H, T35N, I90V, K108Q
